Measured values published in patent publication US6747056B2, “K99-5041 substance and production thereof” (The Kitasato Institute, priority 2002, dated 2004).

Columns and labels:
[1] = molecular target: T1, Lanosterol synthase of human origin (Homo sapiens, UniProt P48449); test: Inhibitory action against lanosterol synthase of human origin (cell-free extract of transformed yeast, [14C](3S)-2,3-oxidosqualene substrate); assay type: biochemical; details: human lanosterol synthase expressed in yeast GIL77, cell-free extract 1 mg protein; 37° C., 60 minutes; substrate 0.17-0.42 μM; read-out: 50% inhibition concentration (IC50) for lanosterol synthase activity
T1 construct: made in house; host or cells: lanosterol synthase deficient yeast GIL77 (GAPDH promoter); cell-free extract
T1 sequence (P48449 1-732): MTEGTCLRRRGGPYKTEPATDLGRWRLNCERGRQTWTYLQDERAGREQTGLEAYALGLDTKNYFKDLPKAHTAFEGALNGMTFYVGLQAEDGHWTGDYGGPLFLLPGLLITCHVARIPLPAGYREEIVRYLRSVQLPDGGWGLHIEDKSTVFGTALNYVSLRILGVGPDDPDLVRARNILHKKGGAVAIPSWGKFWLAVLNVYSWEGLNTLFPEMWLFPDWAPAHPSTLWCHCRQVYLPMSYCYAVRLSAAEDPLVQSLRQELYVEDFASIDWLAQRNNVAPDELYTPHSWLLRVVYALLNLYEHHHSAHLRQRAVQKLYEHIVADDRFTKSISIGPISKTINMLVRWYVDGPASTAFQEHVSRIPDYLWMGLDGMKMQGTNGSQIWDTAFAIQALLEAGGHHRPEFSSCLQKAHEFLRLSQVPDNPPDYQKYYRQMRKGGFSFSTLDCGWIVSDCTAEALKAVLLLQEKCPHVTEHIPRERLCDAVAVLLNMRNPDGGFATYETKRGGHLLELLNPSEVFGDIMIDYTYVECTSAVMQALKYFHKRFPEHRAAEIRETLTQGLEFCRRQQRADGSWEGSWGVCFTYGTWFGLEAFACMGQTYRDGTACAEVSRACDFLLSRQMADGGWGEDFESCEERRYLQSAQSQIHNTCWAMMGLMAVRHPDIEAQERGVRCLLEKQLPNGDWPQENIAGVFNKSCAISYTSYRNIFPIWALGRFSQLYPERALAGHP
Method: (1) Inhibitory Action Against Lanosterol Synthase of Human Origin
Enzyme origin used is as follows. […] The thus obtained cell-free extract derived from transformed yeast was used.
The above transformed yeast was homogenized in buffer A [0.1 M potassium-phosphate buffer solution (pH 7.4), 0.45 M sucrose, 1 mM EDTA and 1 mM dithiothreitol] in the presence of acid treated glass beads using Waring blender [Type 500ACD, Sakuma Seisakusho Co., Japan]. Supernatant obtained by centrifugation, 8600×g, was prepared to make protein concentration of 10 mg/ml by adding the buffer A hereinabove to prepare the cell-free extract.
Assay of lanosterol synthase was performed as follows.
Subsequently, 6% potassium hydroxide/ethanol was added thereto to terminate the reaction, and the mixture was saponificated by incubating at 37° C. for 10 minutes, added cyclohexane 2 ml and stirred well. The cyclohexane layer 1.6 ml was dried up, spotted on TLC plate [silica gel plate (with concentration zone), Merck Inc., U.S.A., thickness 0.25 mm: Art. […] Next, amounts of unreacted [^14C](3S)-2,3-oxidosqualene and generated [^14C]lanosterol were quantitatively assayed using the photo image analyzer BAS-1500 (Fuji Photo Film Co., Japan) to calculate inhibition rate of lanosterol synthesis.

Solubility in solvent = assay type: physicochemical; details: for Solubility in solvent: organic solvents: methanol, ethanol, acetonitrile, ethyl acetate, chloroform and dimethyl sulfoxide
[2] = Grouping for acidic, neutral and basic; assay type: physicochemical

SMILES | IC50 [1] [µM] | Solubility in solvent: organic solvents (Solubility in solvent) | Solubility in solvent: water (Solubility in solvent) | Grouping for acidic, neutral and basic [2]
CC1=NCC/C1=C\CCCCCCCCCCCCCC(C)C [K99-5041-C1x substance] | 15 | soluble | insoluble | Weak basic substance
CCCCCCCCCCCCCCCC/C=C1\CCN=C1C [K99-5041-C2x substance] | 18 | soluble | insoluble | Weak basic substance
